“And” between values parts separate entries of the source, which are not always exact repeats. Identical values can stand only once.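 Where inhibition never reached the appropriate level, the endpoint shown equals the highest concentration tested. Otherwise, values were interpolated linearly from a five-concentration, 48-hour dose response in 96-well plates. At the GI50, growth is halved. TGI marks complete inhibition of growth.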
What was measured:
Assay in all cases: growth of human tumour cells (NCI), 48 h
[1] = test system: 786-0 renal
[2] = test system: ACHN renal
[3] = test system: EKVX NSCLC
[4] = test system: HS 578T breast
[5] = test system: MOLT-4 leukemia
[6] = test system: NCI/ADR-RES ovarian
[7] = test system: SF-268 CNS
[8] = test system: SK-MEL-2 melanoma
[9] = test system: SK-MEL-28 melanoma
[10] = test system: T-47D breast

SMILES	GI50 [1]	TGI [1]	GI50 [2]	TGI [2]	GI50 [3]	TGI [3]	GI50 [4]	TGI [4]	GI50 [5]	TGI [5]	GI50 [6]	TGI [6]	GI50 [7]	TGI [7]	GI50 [8]	TGI [8]	GI50 [9]	TGI [9]	GI50 [10]	TGI [10]
Cc1cn2c(/C=N/N=C(N)N)c(-c3cccnc3)nc2s1	12.9 µM	26.8 µM	11.5 µM	25.8 µM	16.7 µM	36.3 µM	23.5 µM	47.1 µM	3.66 µM	38.6 µM	2.81 µM	9.97 µM	12.9 µM	35.8 µM	18.7 µM	45.5 µM	12.4 µM	26.3 µM	1940 nM	12.1 µM
CCOC(=O)C(C)(C)C(O)C(C)C (stereo not drawn)		> 100 µM		> 100 µM		> 100 µM		> 100 µM		> 100 µM		> 100 µM		> 100 µM		> 100 µM		> 100 µM		> 100 µM
CCc1ccc2c(c1)N(CCO)C1=C(C(=O)OC1)C2c1cccc(Cl)c1 (stereo not drawn)	0.736 µM	19 µM	1.24 µM	31.6 µM	5.33 µM	31.1 µM	1.37 µM	32.2 µM	1.78 µM	48.5 µM	0.337 µM	5.05 µM	0.975 µM	17.2 µM	0.371 µM	16.2 µM	0.613 µM	17.5 µM	583 nM	26.4 µM
COC(=O)/C=C/c1cn(C(C)=O)c2ccc(Br)cc12	17.4 µM	39.2 µM	29.4 µM	> 100 µM	28.2 µM	> 100 µM	22 µM	76.2 µM	27.4 µM	> 100 µM	29.4 µM	> 100 µM	26.4 µM	> 100 µM	29.5 µM	> 100 µM	49 µM	> 100 µM	23400 nM	> 100 µM
C/C(=C\COc1c2c(cc3c1CCO3)OC1(C=C2)OC(CC/C(C)=C/COc2c3ccoc3cc3oc(=O)ccc23)C(C)(C)O1)CCC(O)C(C)(C)O (stereo not drawn)	> 100 µM	> 100 µM	15 µM	> 100 µM	5.93 µM	> 100 µM	27.3 µM	> 100 µM	4.76 µM	53.1 µM	23.8 µM	> 100 µM	21.1 µM	> 100 µM	9.58 µM	> 100 µM	16.9 µM	> 100 µM	3130 nM	> 100 µM
COc1cc(O)c2c(c1)C(=O)c1cc3c(c(O)c1C2=O)C(OC1OC(C)C(O)C(O)C1OC)C(OC)C(C)(O)C3=O (stereo not drawn)	2.42 µM	40.5 µM	2.4 µM	12.4 µM	2.74 µM	7.21 µM and 5.39 µM	3.34 µM	19.5 µM	3.21 µM and 5.19 µM	11.7 µM and 17.3 µM	2.86 µM	15.8 µM and 11 µM	2.56 µM	15.2 µM and 40.5 µM	2.49 µM	6.52 µM and 9.1 µM	2.24 µM and 1.74 µM	5.97 µM and 5.4 µM	3120 nM	9.21 µM
O=c1c2ccccc2c2ccccc2c(=O)n1Cc1ccc2c(c1)OCO2		> 100 µM		> 100 µM		> 100 µM		> 100 µM		> 50.6 µM		> 75.7 µM		> 100 µM		> 80.2 µM		> 100 µM		> 100 µM
COC(=O)[C@H](Cc1ccc(O)cc1)NC(=O)[C@@H](OC)[C@@H]1Cc2cc3cc(OC4CC(OC5CC(O)C(O)C(C)O5)C(O)C(C)O4)c(C)c(O)c3c(O)c2C(=O)[C@H]1OC1CC(OC2CC(OC3CC(C)(O)C(O)C(C)O3)C(O)C(C)O2)C(O)C(C)O1 (stereo partly drawn)	0.16 µM	> 25 µM	0.405 µM	> 25 µM	0.152 µM	> 25 µM	0.0654 µM	5.36 µM	0.126 µM	> 25 µM	> 25 µM	> 25 µM	0.199 µM	> 25 µM	0.1 µM	0.748 µM	0.0348 µM	0.598 µM	87.3 nM	> 25 µM
O=C(NCc1ccncc1)C12CC3CC(C1)CC(c1ccc(Cl)cc1)(C3)C2	12.6 µM	25.8 µM	12.5 µM	25 µM	11.6 µM	26.3 µM	12.9 µM	31.7 µM	8.15 µM	27.2 µM	17.2 µM	87.8 µM	13.7 µM	29.5 µM	14.2 µM	28.1 µM	12.7 µM	25.5 µM	6880 nM	27.5 µM
CCCCN(CCCC)CCCn1c(=O)c2c3ccccc3n(C)c2n2nnc(-c3ccccc3)c12	39 µM	> 100 µM	34.7 µM	> 100 µM	56.3 µM	> 100 µM	39.9 µM	> 100 µM	13.9 µM	> 100 µM	14.3 µM	67.7 µM	> 100 µM	> 100 µM	> 100 µM	> 100 µM	> 100 µM	> 100 µM	54600 nM	> 100 µM
C=C(CN1CCN(c2cccc(C(F)(F)F)n2)CC1)c1ccc(C(=S)Nc2ccccc2N)cc1	4.29 µM	> 100 µM	3.88 µM	> 100 µM	4.47 µM	> 100 µM	3.52 µM	> 100 µM	2.1 µM	6.4 µM	3.12 µM	> 100 µM	8.08 µM	> 100 µM	4.13 µM	> 100 µM	6.95 µM	42.1 µM	2260 nM	8.54 µM
COc1ccc(CNc2nc3cc(N)cc(N)c3nc2-c2ccccc2)cc1	15.1 µM	41.4 µM	14.9 µM	33.6 µM	14.9 µM	28.2 µM	26.9 µM	> 100 µM			22.7 µM	83.3 µM	9.79 µM	22 µM	14.7 µM	29.1 µM	17.3 µM	32.3 µM	2800 nM	11 µM

Reference: PubChem BioAssay (NCI)
